# Earlier results, collected in patent US20160374909A9, “Treating Cariogenic diseased oral biofilm with elevated pH” (Dental Alliance Holdings, LLC dba Oral Bio Tech, priority 2006, published 2016).
# What was measured:
# [1] = test system: Mutans streptococci; details: rinse or varnish
# [2] = test system: Lactobacilli; details: rinse or varnish
smiles,measurement,setting,value
[H]/N=C(\N/C(=N/[H])NCCCCCCNC(=N)NC(=N)Nc1ccc(Cl)cc1)Nc1ccc(Cl)cc1 [chlorhexidine],effect against Mutans streptococci,[1],effective
same,effect against Lactobacilli,[2],no effect
